Experimental findings from patent publication US20110190280A1, “Thiazole And Oxazole Kinase Inhibitors” (priority 2007, published 2011) are described below.

The subject of one test is HT-29 tumor cells. Put plainly: Cell growth inhibition assay (CellTiter-Glo), HT-29.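 Further: ATP content read by luminescence as proxy for cell number, growth inhibition versus DMSO vehicle wells, 0.2% DMSO final, nine serial threefold compound dilutions.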 The settings on record: Homo sapiens, HT-29, 72 h, read-out: Activity in HT-29 Tumor Cells. (In ATP-based viability assays light output follows the ATP content of the culture.)
A further test has as its target B-Raf (Homo sapiens, UniProt P15056). Put plainly: B-Raf Accelerated MEK ATPase assay (BRAMA). The format is biochemical. The settings on record: BRAMA enzyme assay, class by pIC50; for pIC50: read-out: B-Raf Activity. Here is the method: Compounds of the present invention were tested for B-Raf […] inhibitory activity in a B-Raf Accelerated MEK ATPase assay (BRAMA). The BRAMA assay is a high sensitivity assay which measures an intrinsic MEK-mediated ATP hydrolysis uncoupled from downstream ERK phosphorylation by coupling the formation of ADP to NADH oxidation through the enzymes pyruvate kinase and lactate dehydrogenase. When ADP production is initiated by addition of catalytic amounts of an activated RAF enzyme and non-phosphorylated MEK, one observes robust ADP production concomitant with RAF-mediated phosphorylation of MEK. Specific details of the assay are disclosed in: C. Rominger, M. Schaber, E. May. Assay for B-Raf Activity Based on Intrinsic MEK ATPase Activity.

Another test concerns SK-MEL-28 tumor cells. Put plainly: Cell growth inhibition assay (CellTiter-Glo), SK-MEL-28.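 Further: luminescent total ATP as a proxy for cell number, threefold serial dilutions at 0.2% DMSO, percent growth inhibition versus DMSO vehicle control wells.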 The settings on record: Homo sapiens, SK-MEL-28, 72 h, read-out: Activity in SK-MEL-28 Tumor Cells.
Another test concerns A375P tumor cells. Put plainly: Cell growth inhibition assay (CellTiter-Glo), A375P.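 Further: total ATP luminescence used as proxy for cell number, serial threefold compound dilutions at 0.2% DMSO, growth inhibition expressed versus DMSO vehicle-treated wells.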 The settings on record: Homo sapiens, 72 h, read-out: Activity in A375P Tumor Cells.
The test system of another test is SK-MEL-3 tumor cells. Put plainly: Cell growth inhibition assay (CellTiter-Glo), SK-MEL-3.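 Further: human melanoma cells grown with compound for 3 days in 0.2% DMSO, total ATP read by luminescence as proxy for cell number, growth inhibition versus DMSO-treated wells.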 The settings on record: Homo sapiens, SK-MEL3, 72 h, read-out: Activity in SK-MEL-3 Tumor Cells.
In the next test the test system is Colo205 tumor cells. The test can be described thus: Cell growth inhibition assay (CellTiter-Glo), Colo205.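 Further: growth measured via total ATP luminescence (CellTiter-Glo) as a proxy for cell number, inhibition expressed against DMSO-treated control wells, 3-day exposure at 0.2% final DMSO.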 The settings on record: Homo sapiens, COLO 205, 72 h, read-out: Activity in Colo205 Tumor Cells.

Structures are written as SMILES. pIC50: −log10 of the molar value. Where a name gives a salt, the structure may show the parent alone.

Chain of B-Raf (P15056 whole entry): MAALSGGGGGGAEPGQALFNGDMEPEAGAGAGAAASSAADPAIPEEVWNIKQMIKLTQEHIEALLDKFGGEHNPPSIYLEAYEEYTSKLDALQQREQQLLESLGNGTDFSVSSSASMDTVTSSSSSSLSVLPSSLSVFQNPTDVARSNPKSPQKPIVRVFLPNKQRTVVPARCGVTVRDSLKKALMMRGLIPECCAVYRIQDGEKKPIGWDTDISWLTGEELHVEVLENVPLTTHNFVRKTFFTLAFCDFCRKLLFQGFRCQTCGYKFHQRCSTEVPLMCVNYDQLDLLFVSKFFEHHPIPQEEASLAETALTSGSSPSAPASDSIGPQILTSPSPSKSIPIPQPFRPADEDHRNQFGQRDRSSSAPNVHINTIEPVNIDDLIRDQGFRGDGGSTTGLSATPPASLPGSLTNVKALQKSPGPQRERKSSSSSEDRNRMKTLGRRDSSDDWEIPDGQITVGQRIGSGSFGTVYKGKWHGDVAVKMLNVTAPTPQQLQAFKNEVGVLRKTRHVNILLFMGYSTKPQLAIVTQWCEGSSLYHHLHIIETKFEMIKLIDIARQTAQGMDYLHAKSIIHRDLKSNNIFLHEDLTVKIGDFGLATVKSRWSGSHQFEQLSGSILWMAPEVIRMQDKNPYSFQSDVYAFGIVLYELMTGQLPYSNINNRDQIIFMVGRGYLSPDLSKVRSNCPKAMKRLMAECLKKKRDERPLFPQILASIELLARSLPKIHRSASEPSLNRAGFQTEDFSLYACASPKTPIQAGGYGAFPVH
Description for Colo205 tumor cells: Cell Growth Inhibition Assays Human colon tumor cells (Colo205) were cultured in RPMI (Mediatech 50-020-PB) containing 10% FBS and 1% penicillin-streptomycin. […] Human melanoma cancer cells (A375-F11S) were cultured in RPMI (Mediatech 50-020-PB) containing 10% FBS, 1% sodium pyruvate, and 1% penicillin-streptomycin. Human colon cancer cells (HT-29) were cultured in high glucose DMEM (Mediatech 50-013-PB) containing 10% FBS and 1% penicillin-streptomycin. Human melanoma cancer cells (SK-MEL-3) were cultured in McCoy's 5A (50-025-PB) containing 15% FBS, and 1% penicillin-streptomycin. All cell lines were maintained at 37° C. in a humidified 5% CO2, 95% air incubator.
The next day, compounds were diluted as follows: For 96-well assays, 13.5 μl of compound in DMSO were diluted using nine (9) serial 1:3 dilutions of 4.5 μl in 9 μl of DMSO. Medium (270 μl/well of RPMI with 10% FBS and 1% penicillin-streptomycin) was added to the plates. Aliquots (7 μl) were added to cells in the final assay giving a final DMSO concentration of 0.2%. For 384-well assays, 15 μl of compound in DMSO were diluted using nine (9) serial 1:3 dilutions of 5 μl in 10 μl of DMSO, followed by a further dilution of 5 μl of compound with 95 μl of medium, of which 2 μl are added to cells in the final assay giving a final DMSO concentration of 0.2%. Cells were incubated at 37° C., 5% CO2 for 3 days.
Total ATP was measured (as a surrogate estimate of cell number) using CellTiter-Glo® (Promega G7571) reagent. Briefly, plates were removed from the incubator and allowed to equilibrate to room temperature for 30 minutes. CellTiter-Glo® (25 μl or 55 μl for 384-well or 96-well assays, respectively) reagent was added to each well and plates were shaken on an orbital plate shaker for 2 minutes. Plates were incubated without shaking for a further 30 minutes and read on an LJL Analyst GT reader in luminometer mode with an integration time of 0.5 seconds per well. Percent inhibition of cell growth was calculated relative to DMSO vehicle-treated control wells.

Consider `CCNc1nc(-c2cc(OC)cc(OC)c2)c(-c2ccnc(Nc3ccc(N4CCN(CCF)CC4)nc3)n2)o1` [Example 112], for which the pIC50 was 5.30 to 6.30 with HT-29 tumor cells; greater than 7.00 at B-Raf; 5.30 to 6.30 in the test with SK-MEL-28 tumor cells; 5.30 to 6.30 in the test on A375P tumor cells; 5.30 to 6.30 in the test on SK-MEL-3 tumor cells; greater than 6.30 with Colo205 tumor cells.
As to `CCNc1nc(-c2cc(OC)cc(OC)c2)c(-c2ccnc(Nc3ccc(N4CCN(C)CC4)c(Cl)c3)n2)s1` [Example 11, 4-[4-[3,5-Bis(methyloxy)phenyl]-2-(ethylamino)-1,3-thiazol-5-yl]-N-[3-chloro-4-(4-methyl-1-piperazinyl)phenyl]-2-pyrimidinamine], the pIC50 in the test with HT-29 tumor cells was greater than 6.30; on B-Raf, greater than 7.00; in the test with SK-MEL-28 tumor cells, greater than 6.30; in the test on A375P tumor cells, greater than 6.30; in the test with SK-MEL-3 tumor cells, greater than 6.30; in the test on Colo205 tumor cells, greater than 6.30.
For `COc1cc(OC)cc(-c2nc(NC3CCC3)sc2-c2ccnc(Nc3ccc(OC4CCN(CCS(C)(=O)=O)CC4)c(F)c3)n2)c1` [Example 22, 4-[4-[3,5-Bis(methyloxy)phenyl]-2-(cyclobutylamino)-1,3-thiazol-5-yl]-N-[3-fluoro-4-({1-[2-(methylsulfonyl)ethyl]-4-piperidinyl}oxy)phenyl]-2-pyrimidinamine], the pIC50 with HT-29 tumor cells is greater than 6.30; at B-Raf, greater than 7.00; in the test on SK-MEL-28 tumor cells, greater than 6.30; in the test with A375P tumor cells, greater than 6.30; in the test on SK-MEL-3 tumor cells, greater than 6.30; in the test with Colo205 tumor cells it was greater than 6.30.
Consider `CCNc1nc(-c2cc(OC)cc(OC)c2)c(-c2ccnc(Nc3ccc(N4CCN(CCS(C)(=O)=O)CC4)c(F)c3)n2)o1` [Example 116], for which the pIC50 was 5.30 to 6.30 in the test on HT-29 tumor cells; greater than 7.00 at B-Raf; 5.30 to 6.30 in the test on SK-MEL-28 tumor cells; 5.30 to 6.30 with A375P tumor cells; greater than 6.30 in the test on SK-MEL-3 tumor cells; greater than 6.30 in the test with Colo205 tumor cells.
As for `CCNc1nc(-c2cc(OC)cc(OC)c2)c(-c2ccnc(Nc3ccc(OC4CCN(CCS(C)(=O)=O)CC4)c(Cl)c3)n2)o1` [Example 92], the pIC50 with HT-29 tumor cells is 5.30 to 6.30; at B-Raf, greater than 7.00; in the test with SK-MEL-28 tumor cells, 5.30 to 6.30; in the test on A375P tumor cells it was 5.30 to 6.30; in the test with SK-MEL-3 tumor cells, 5.30 to 6.30; with Colo205 tumor cells it was 5.30 to 6.30.
In the case of `CCNc1nc(-c2cc(OC)cc(OC)c2)c(-c2ccnc(Nc3ccc(N4CCN(CC)CC4)cc3)n2)s1` [Example 5, 4-[4-[3,5-Bis(methyloxy)phenyl]-2-(ethylamino)-1,3-thiazol-5-yl]-N-[4-(4-ethyl-1-piperazinyl)phenyl]-2-pyrimidinamine trifluoroacetate], the pIC50 in the test on HT-29 tumor cells was greater than 6.30; on B-Raf, greater than 7.00; with SK-MEL-28 tumor cells it was 5.30 to 6.30; in the test with A375P tumor cells it was 5.30 to 6.30; with SK-MEL-3 tumor cells it was greater than 6.30; with Colo205 tumor cells, 5.30 to 6.30.
As to `COc1cc(-c2nc(NC3CC3)sc2-c2ccnc(Nc3ccc(OCCN4CCCC4)c(Cl)c3)n2)ccc1Cl` [Example 51, 4-[4-[4-Chloro-3-(methyloxy)phenyl]-2-(cyclopropylamino)-1,3-thiazol-5-yl]-N-(3-chloro-4-{[2-(1-pyrrolidinyl)ethyl]oxy}phenyl)-2-pyrimidinamine], the pIC50 in the test with HT-29 tumor cells was greater than 6.30; at B-Raf, greater than 7.00; in the test on SK-MEL-28 tumor cells, 5.30 to 6.30; in the test with A375P tumor cells it was 5.30 to 6.30; in the test on SK-MEL-3 tumor cells it was greater than 6.30; in the test with Colo205 tumor cells, greater than 6.30.
Regarding `CNc1nc(-c2cc(OC)cc(OC)c2)c(-c2ccnc(Nc3ccc(OCCN4CCCC4)c(Cl)c3)n2)s1` [Example 20, 4-[4-[3,5-Bis(methyloxy)phenyl]-2-(methylamino)-1,3-thiazol-5-yl]-N-(3-chloro-4-{[2-(1-pyrrolidinyl)ethyl]oxy}phenyl)-2-pyrimidinamine], the pIC50 is greater than 6.30 with HT-29 tumor cells; greater than 7.00 on B-Raf; greater than 6.30 in the test with SK-MEL-28 tumor cells; greater than 6.30 in the test on A375P tumor cells; greater than 6.30 in the test on SK-MEL-3 tumor cells; greater than 6.30 in the test with Colo205 tumor cells.
As for `CCNc1nc(-c2cc(OC)cc(OC)c2)c(-c2ccnc(Nc3ccc(OCCN4CCOCC4)c(F)c3)n2)s1` [Example 13, 4-[4-[3,5-Bis(methyloxy)phenyl]-2-(ethylamino)-1,3-thiazol-5-yl]-N-(3-fluoro-4-{[2-(4-morpholinyl)ethyl]oxy}phenyl)-2-pyrimidinamine], the pIC50 in the test with HT-29 tumor cells is greater than 6.30; at B-Raf, greater than 7.00; in the test with SK-MEL-28 tumor cells, 5.30 to 6.30; in the test with A375P tumor cells it was 5.30 to 6.30; in the test with SK-MEL-3 tumor cells, greater than 6.30; with Colo205 tumor cells, 5.30 to 6.30.
`COc1cccc(-c2nc(C(C)C)sc2-c2ccnc(Nc3ccc(OC4CCN(C(C)C)CC4)c(F)c3)n2)c1` [Example 59, N-(3-Fluoro-4-{[1-(1-methylethyl)-4-piperidinyl]oxy}phenyl)-4-{2-(1-methylethyl)-4-[3-(methyloxy)phenyl]-1,3-thiazol-5-yl}-2-pyrimidinamine]: the pIC50 was greater than 6.30 in the test on HT-29 tumor cells; greater than 7.00 on B-Raf; 5.30 to 6.30 with SK-MEL-28 tumor cells; 5.30 to 6.30 in the test on A375P tumor cells; greater than 6.30 in the test with SK-MEL-3 tumor cells; greater than 6.30 with Colo205 tumor cells.
For the compound `CCNc1nc(-c2cc(C)cc(OC)c2)c(-c2ccnc(Nc3ccc(N4CCOCC4)c(F)c3)n2)o1.O=C(O)C(F)(F)F` [Example 129], the pIC50 in the test on HT-29 tumor cells, in the test on A375P tumor cells and in the test with SK-MEL-3 tumor cells was 5.30 to 6.30 each time. For the same compound, at B-Raf, the “B-Raf Activity” value was “+++ (at least one pIC50 measurement of greater than 7 against B-Raf)”.
In the case of `CCNc1nc(-c2cccc(OC)c2)c(-c2ccnc(Nc3ccc(CCN4CCN(S(C)(=O)=O)CC4)nc3)n2)s1` [Example 40, 4-{2-(Ethylamino)-4-[3-(methyloxy)phenyl]-1,3-thiazol-5-yl}-N-(6-{2-[4-(methylsulfonyl)-1-piperazinyl]ethyl}-3-pyridinyl)-2-pyrimidinamine], the pIC50 on B-Raf was greater than 7.00; with SK-MEL-28 tumor cells it was 5.30 to 6.30; in the test on Colo205 tumor cells, greater than 6.30.
The matching figures for `CCNc1nc(-c2cc(C)cc(OC)c2)c(-c2ccnc(Nc3ccc(N4CCOCC4)c(F)c3)n2)o1` [Example 101]: greater than 7.00, 5.30 to 6.30 and greater than 6.30.
Take `COc1cc(OC)cc(-c2nc(N(C)C)sc2-c2ccnc(Nc3ccc(OC4CCN(CCS(C)(=O)=O)CC4)c(F)c3)n2)c1` [Example 24, 4-[4-[3,5-bis(methyloxy)phenyl]-2-(dimethylamino)-1,3-thiazol-5-yl]-N-[3-fluoro-4-({1-[2-(methylsulfonyl)ethyl]-4-piperidinyl}oxy)phenyl]-2-pyrimidinamine]: the pIC50 at B-Raf is greater than 7.00; with SK-MEL-28 tumor cells, 5.30 to 6.30; in the test on Colo205 tumor cells it was greater than 6.30.
Take `CCNc1nc(-c2ccc(C)c(OC)c2)c(-c2ccnc(Nc3ccc(OCCN4CCCC4)c(C#N)c3)n2)s1` [Example 50, 5-[(4-{2-(Ethylamino)-4-[4-methyl-3-(methyloxy)phenyl]-1,3-thiazol-5-yl}-2-pyrimidinyl)amino]-2-{[2-(1-pyrrolidinyl)ethyl]oxy}benzonitrile]: the pIC50 on B-Raf is greater than 7.00; in the test with SK-MEL-28 tumor cells, 5.30 to 6.30; in the test on Colo205 tumor cells, greater than 6.30.
